Reference: ChEMBL document CHEMBL3414448, “Advances in the discovery of novel antimicrobials targeting the assembly of bacterial cell division protein FtsZ” (Eur J Med Chem, 2015)
Converted amounts (≈) assume the structure as drawn.

Tests used:
[1] = Inhibition of FtsZ (unknown origin) assessed as reduction in enzyme GTPase activity
Staphylococcus aureus [2] = test: Antimicrobial activity against Staphylococcus aureus; assay type: functional
Escherichia coli [3] = test: Antimicrobial activity against Escherichia coli; assay type: functional
[4] = molecular target: T1, Cell division protein FtsZ (Escherichia coli K-12, UniProt P0A9A6); test: Inhibition of Escherichia coli FtsZ GTPase activity
T1 sequence (P0A9A6 whole entry): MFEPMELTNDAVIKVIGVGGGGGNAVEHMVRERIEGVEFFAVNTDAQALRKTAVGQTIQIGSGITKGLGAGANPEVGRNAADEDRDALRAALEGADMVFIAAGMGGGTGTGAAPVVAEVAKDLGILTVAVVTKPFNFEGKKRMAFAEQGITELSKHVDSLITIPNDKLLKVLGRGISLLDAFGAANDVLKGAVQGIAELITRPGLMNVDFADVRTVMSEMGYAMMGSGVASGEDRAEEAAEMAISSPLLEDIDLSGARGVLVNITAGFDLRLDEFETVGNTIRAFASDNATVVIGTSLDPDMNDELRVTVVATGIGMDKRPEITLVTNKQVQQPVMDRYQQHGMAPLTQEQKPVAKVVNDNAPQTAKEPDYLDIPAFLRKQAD

Staphylococcus aureus [5] = test: Antimicrobial activity against community acquired methicillin-resistant Staphylococcus aureus USA300-LAC; assay type: functional
Staphylococcus aureus [6] = test: Antimicrobial activity against Staphylococcus aureus UAMS1; assay type: functional
Bacillus subtilis [7] = test: Antimicrobial activity against Bacillus subtilis 168; assay type: functional
Enterobacter cloacae = test: Antimicrobial activity against multidrug-resistant Enterobacter cloacae 12161389; assay type: functional
Pseudomonas aeruginosa = test: Antimicrobial activity against Pseudomonas aeruginosa ATCC 27853; assay type: functional
Escherichia coli [8] = test: Antimicrobial activity against Escherichia coli ATCC 35218; assay type: functional
Streptococcus pneumoniae = test: Antimicrobial activity against Streptococcus pneumoniae ATCC 49619; assay type: functional
Enterococcus faecalis = test: Antimicrobial activity against Enterococcus faecalis ATCC 29212; assay type: functional
Staphylococcus aureus [9] = test: Antimicrobial activity against methicillin-sensitive Staphylococcus aureus ATCC 29213; assay type: functional
Enterococcus faecium = test: Antimicrobial activity against ampicillin-resistant and levofloxacin-resistant Enterococcus faecium 12160560; assay type: functional
Klebsiella pneumoniae = test: Antimicrobial activity against ESBL producing Klebsiella pneumoniae ATCC 700603; assay type: functional
Acinetobacter baumannii = test: Antimicrobial activity against multidrug-resistant Acinetobacter baumannii 12159796; assay type: functional
[10] = system: Mycobacterium tuberculosis; test: Antimicrobial activity against Mycobacterium tuberculosis; assay type: functional
[11] = molecular target: T2, Cell division protein FtsZ (Mycobacterium tuberculosis, UniProt P9WN95); test: Binding affinity to Mycobacterium tuberculosis FtsZ
T2 sequence (P9WN95 whole entry): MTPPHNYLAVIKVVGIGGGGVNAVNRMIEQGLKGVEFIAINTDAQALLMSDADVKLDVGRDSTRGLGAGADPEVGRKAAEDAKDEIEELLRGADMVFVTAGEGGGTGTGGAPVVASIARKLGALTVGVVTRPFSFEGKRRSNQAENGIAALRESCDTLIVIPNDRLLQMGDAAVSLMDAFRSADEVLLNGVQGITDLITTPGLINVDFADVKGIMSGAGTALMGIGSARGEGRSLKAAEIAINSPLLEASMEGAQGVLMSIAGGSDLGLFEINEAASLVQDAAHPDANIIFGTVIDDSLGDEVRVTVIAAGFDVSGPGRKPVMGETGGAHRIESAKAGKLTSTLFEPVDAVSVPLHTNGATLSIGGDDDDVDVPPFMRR

Bacillus subtilis [12] = test: Antimicrobial activity against Bacillus subtilis; assay type: functional
[13] = Inhibition of FtsZ (unknown origin) assessed as reduction in enzyme assembly
Staphylococcus [14] = test: Antimicrobial activity against Staphylococcus; assay type: functional
Staphylococcus [15] = test: Antimicrobial activity against Staphylococcus relative to PC190723; assay type: functional

Molecule `CCC(CC)c1cc([C@H]2CN3CC[C@H]2C[C@@H]3CN)nc(-c2ccncc2)n1` has an IC50 [1] of 37.5 µM, an MIC (Staphylococcus aureus [2]) of 9 µg/mL (≈ 24.6 µM) and an MIC (Escherichia coli [3]) of 18 µg/mL (≈ 49.2 µM).
In the case of `COc1cc(C/C=C(/Cl)Cc2cc(O)cc(O)c2)c(OC)cc1Cl`, the IC50 [4] is reported as 37 µM, the MIC (Staphylococcus aureus [5]) is reported as 1 µg/mL (≈ 2.71 µM) and the MIC (Staphylococcus aureus [6]) is reported as 1 µg/mL (≈ 2.71 µM).
`O=C(Oc1cc(OC(=O)c2cc(O)cc(O)c2)c2ccccc2c1)c1cc(O)c(O)c(O)c1` showed an MIC (Bacillus subtilis [7]) of 16 µg/mL (≈ 35.7 µM), an MIC (Enterobacter cloacae) of 128 µg/mL (≈ 285 µM) and an MIC (Pseudomonas aeruginosa) of 64 µg/mL (≈ 143 µM). The MIC (Escherichia coli [8]) was 128 µg/mL (≈ 285 µM), the MIC (Streptococcus pneumoniae) was 32 µg/mL (≈ 71.4 µM) and the MIC (Enterococcus faecalis) was 32 µg/mL (≈ 71.4 µM). For the same molecule, the MIC (Staphylococcus aureus [9]) was 16 µg/mL (≈ 35.7 µM), the MIC (Enterococcus faecium) was 32 µg/mL (≈ 71.4 µM) and the MIC (Klebsiella pneumoniae) was 128 µg/mL (≈ 285 µM). It also gave an MIC (Acinetobacter baumannii) of 64 µg/mL (≈ 143 µM).
In the case of `CCC(CC)c1cc([C@H]2CN3CC[C@H]2C[C@@H]3CNCc2ccco2)nc(-c2ccncc2)n1`, the IC50 [1] is reported as 55.7 µM, the MIC (Staphylococcus aureus [2]) is reported as 12 µg/mL (≈ 26.9 µM) and the MIC (Escherichia coli [3]) is reported as 72 µg/mL (≈ 162 µM).
Molecule `CC(C)c1c(O)ccc2c1CC[C@H]1C(C)(C)CCC[C@]21C` [TOTAROL] has an MIC (Bacillus subtilis [7]) of 0.6 µg/mL (≈ 2.09 µM), an MIC [10] of 16 µg/mL (≈ 55.9 µM) and an IC50 [1] of 40.8 µM. For the same molecule, the Kd [11] was 11 µM, the MIC (Staphylococcus aureus [2]) was 1.5 µg/mL (≈ 5.24 µM) and the MIC (Escherichia coli [3]) was > 400 µg/mL.
In the case of `O=C1C[C@@H](c2ccccc2)Oc2c(Cc3ccccc3O)c(O)c(Cc3ccccc3O)c(O)c21` [DICHAMANETIN], the MIC (Bacillus subtilis [12]) is reported as 5.01 µg/mL (≈ 10.7 µM), the IC50 [4] is reported as 12.5 µM and the MIC (Staphylococcus aureus [2]) is reported as 0.8 µg/mL (≈ 1.71 µM).
Work on `O=C1C[C@@H](c2ccccc2)Oc2c(Cc3cc(Cc4ccccc4O)ccc3O)c(O)c(Cc3cc(Cc4ccccc4O)ccc3O)c(O)c21` yielded an MIC (Bacillus subtilis [12]) of 1.77 µg/mL (≈ 2.6 µM), an IC50 [4] of 8.3 µM and an MIC (Staphylococcus aureus [2]) of 1.16 µg/mL (≈ 1.7 µM).
With `COc1ccc2cc3[n+](cc2c1OC)CCc1cc2c(cc1-3)OCO2` [BERBERINE] the IC50 [1] was 16 µM and the IC50 [13] was 10 µM.
Work on `NC(=O)c1c(F)ccc(O[C@H](CO)c2nc(-c3ccc(C(F)(F)F)cc3)c(Br)o2)c1F` yielded an MIC (Staphylococcus [14]) of 0.12 µg/mL (≈ 0.237 µM) and a Ratio (Staphylococcus [15]) of 4.
For `NC(=O)c1c(F)ccc(OCc2nc3cc(Cl)cnc3s2)c1F`, the MIC (Staphylococcus [14]) was 0.5 µg/mL (≈ 1.41 µM).
`CCC(CC)c1cc([C@H]2CN3CC[C@H]2C[C@@H]3CNCc2ccc(CO)o2)nc(-c2ccncc2)n1` gave an IC50 [1] of 73.2 µM, an MIC (Staphylococcus aureus [2]) of 24 µg/mL (≈ 50.5 µM) and an MIC (Escherichia coli [3]) of 36 µg/mL (≈ 75.7 µM).
In the case of `Cc1nc(-c2cccs2)cc([C@H]2CN3CC[C@H]2C[C@@H]3CNC(=O)CCCC(=O)O)n1`, the IC50 [1] is reported as 317 µM, the MIC (Staphylococcus aureus [2]) is reported as 384 µg/mL (≈ 897 µM) and the MIC (Escherichia coli [3]) is reported as 192 µg/mL (≈ 449 µM).
